For experiment [1], the system named is icilin-induced "wet-dog" shakes (WDS). The experiment is described as follows: Inhibition of icilin-induced "wet-dog" shakes in rats. The class given is in vivo. Particulars: HCl salt, 10 mpk PO, vehicle HPbCD; male Sprague Dawley rats; [1-(test compound WDS count/vehicle WDS count)]x100. As to the method: Male Sprague Dawley rats (220-450 g, Charles River Labs, n=6-9/treatment) were used to evaluate the ability of compounds selected from the group consisting of formula (I) and formula (II) to block icilin-induced “wet-dog” shakes (WDS). Compounds selected from the group consisting of formula (I) and formula (II) were administered in an appropriate vehicle, such as hydroxypropyl-β-cyclodextrin (HPβCD), methocellulose, 10% Solutol, or H2O, or the like, by the appropriate route, i.p. or p.o., 30-120 minutes before icilin. Icilin was administered in PEG-400 or 10% solutol/H2O, at 1.0 or 3.0 mg/kg, i.p. and spontaneous “wet-dog” shakes were counted 10-20 minutes post-icilin. Results are presented as a percent inhibition of shakes, which was calculated as [1−(test compound WDS count/vehicle WDS count)]×100.

The target in experiment [2] is T1, canine TRPM8 (Canis lupus familiaris, UniProt Q1A7N1).
T1 construct: expressed in transfected cells
T1 sequence (Q1A7N1 1-1104): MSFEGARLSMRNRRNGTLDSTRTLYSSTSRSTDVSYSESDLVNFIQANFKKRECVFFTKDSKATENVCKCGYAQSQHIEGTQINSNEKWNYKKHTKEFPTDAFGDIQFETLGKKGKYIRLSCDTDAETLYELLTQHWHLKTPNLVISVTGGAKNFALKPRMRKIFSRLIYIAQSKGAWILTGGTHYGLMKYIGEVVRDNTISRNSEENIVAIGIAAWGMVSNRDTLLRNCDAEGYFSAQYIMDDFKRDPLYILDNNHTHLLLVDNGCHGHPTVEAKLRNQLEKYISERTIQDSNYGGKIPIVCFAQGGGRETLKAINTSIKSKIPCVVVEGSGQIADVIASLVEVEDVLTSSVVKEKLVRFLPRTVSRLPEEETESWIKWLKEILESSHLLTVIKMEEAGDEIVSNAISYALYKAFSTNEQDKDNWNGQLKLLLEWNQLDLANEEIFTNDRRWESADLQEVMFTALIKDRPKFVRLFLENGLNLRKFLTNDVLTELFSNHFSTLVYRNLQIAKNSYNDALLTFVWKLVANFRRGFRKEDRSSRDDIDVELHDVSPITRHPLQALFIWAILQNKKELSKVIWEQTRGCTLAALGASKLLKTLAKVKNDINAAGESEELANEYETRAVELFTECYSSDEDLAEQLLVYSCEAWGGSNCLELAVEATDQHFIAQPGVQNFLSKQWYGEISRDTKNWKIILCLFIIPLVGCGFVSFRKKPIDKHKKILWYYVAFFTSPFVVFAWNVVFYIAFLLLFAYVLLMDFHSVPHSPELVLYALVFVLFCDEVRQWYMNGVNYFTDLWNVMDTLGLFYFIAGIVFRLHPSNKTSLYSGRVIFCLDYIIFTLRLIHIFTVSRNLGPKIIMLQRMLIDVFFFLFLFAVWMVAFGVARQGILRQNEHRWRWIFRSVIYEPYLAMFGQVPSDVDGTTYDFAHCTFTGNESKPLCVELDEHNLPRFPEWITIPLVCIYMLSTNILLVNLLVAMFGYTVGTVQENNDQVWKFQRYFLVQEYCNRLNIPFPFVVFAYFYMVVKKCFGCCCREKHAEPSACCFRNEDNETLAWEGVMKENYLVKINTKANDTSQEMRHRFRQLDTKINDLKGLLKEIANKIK
The experiment is described as follows: In vitro canine TRPM8 functional assay (Ca2+-sensitive fluorescent dye, FLIPR or FDSS, icilin challenge). The class given is cell-based. Particulars: for inhibition at 0.2 µM: 0.2 μM compound. The procedure, abridged: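 Cells (HEK293, stable canine TRPM8) are seeded 24 h before assay. They are then dye-loaded with Calcium 3 at 37 °C followed by room temperature. Compound is added and monitored for 5 min, after which icilin (~80% maximal response) is added.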

Where [3] appears, read: HEK293 cells stably expressing canine TRPM8, icilin challenge.
The mark [4] stands for this setting: HEK293 cells stably expressing canine TRPM8, icilin at approx. 80% maximal response, eight-point dose-response, single determinations unless otherwise noted, read-out: IC50.

SMILES strings stand for the structures. Read-outs that look alike come from different tables or passages of the source.

In the case of `Cc1c(N(Cc2ccc(OC(F)(F)F)cc2)S(=O)(=O)CCN(C)Cc2ccccc2)sc2ccccc12` [Cpd 14, N-(3-Methylbenzo[b]thiophen-2-yl)-N-(4-trifluoromethoxy-benzyl)-2-(benzyl-methylamino)ethylsulfonamide], the “% Inhibition (of wet-dog shakes)” value in experiment [1] worked out at 0%. Further, the inhibition at 0.2 µM in experiment [2] (setting [3]) is 102%. Also, the IC50 in experiment [2] (setting [4]) was found to be 0.016 µM.
As for `Cc1c(N(Cc2ccc(OC(F)(F)F)cc2)S(=O)(=O)CCN(CC(C)C)CC(C)C)sc2ccccc12` [Cpd 16, N-(3-Methylbenzo[b]thiophen-2-yl)-N-(4-trifluoromethoxy-benzyl)-2-(diisobutylamino)ethylsulfonamide], in experiment [1], the “% Inhibition (of wet-dog shakes)” value is listed as 0%. In experiment [2] (setting [3]), the inhibition at 0.2 µM was 101%. The IC50 in experiment [2] (setting [4]) worked out at 0.006 µM.
For the compound `Cc1c(N(Cc2ccc(OC(F)(F)F)cc2)S(=O)(=O)CCN2CCC(c3ccccc3)CC2)sc2ccccc12` [Cpd 25, N-(3-Methylbenzo[b]thiophen-2-yl)-N-(4-trifluoromethoxy-benzyl)-2-(4-phenylpiperidin-1-yl)ethylsulfonamide], the “% Inhibition (of wet-dog shakes)” value in experiment [1] is 12.7%. Besides, the IC50 was 0.029 µM in experiment [2] and 0.026 µM in experiment [2] (IC50, determination of HCl salt, HEK293 cells stably expressing canine TRPM8, icilin challenge). Further, the inhibition at 0.2 µM in experiment [2] (setting [3]) and in experiment [2] (determination of HCl salt) was 100% in each case.
`Cc1c(N(CCC2CC2)S(=O)(=O)CCN(CC(C)C)CC(C)C)sc2ccccc12` [Cpd 74, N-(3-Methylbenzo[b]thiophen-2-yl)-N-(2-cyclopropyl-ethyl)-2-(diisobutylamino)ethylsulfonamide]: in experiment [1], the “% Inhibition (of wet-dog shakes)” value is given as 26%. In addition, the inhibition at 0.2 µM in experiment [2] (setting [3]) amounted to 100%. The IC50 in experiment [2] (setting [4]) was 0.017 µM.
For `Cc1c(N(CCCCC(F)(F)F)S(=O)(=O)CCN(CC(C)C)CC(C)C)sc2ccccc12` [Cpd 78, N-(3-Methylbenzo[b]thiophen-2-yl)-N-(5,5,5-trifluoro-n-pent-1-yl)-2-(di-iso-butylamino)ethylsulfonamide] the same measures were 3%, 100% and 0.018 µM.
For `Cc1c(N(Cc2ccc(F)c(F)c2)S(=O)(=O)CCN(CC(C)C)CC(C)C)sc2ccccc12` [Cpd 80, N-(3-Methylbenzo[b]thiophen-2-yl)-N-(3,4-difluoro-benzyl)-2-(di-iso-butylamino)ethylsulfonamide], in that order: 0%, 100% and 0.026 µM.
On to `CC(=O)N(CCS(=O)(=O)N(CCCCC(F)(F)F)c1sc2ccccc2c1C)CC(C)C` [Cpd 88, N-(3-Methylbenzo[b]thiophen-2-yl)-N-(5,5,5-trifluoro-n-pent-1-yl)-2-(N-acetyl-isobutylamino)ethylsulfonamide], for which, in experiment [2] (setting [3]), the inhibition at 0.2 µM turned out to be 91%. For the same compound, the IC50 in experiment [2] (setting [4]) amounted to 0.059 µM.
For `CCN(CCS(=O)(=O)N(CCCCC(F)(F)F)c1sc2ccccc2c1C)CC(C)C` [Cpd 89, N-(3-Methylbenzo[b]thiophen-2-yl)-N-(5,5,5-tritluoro-n-pent-1-yl)-2-(ethyl-isobutylamino)ethylsulfonamide] the same measures were 99% and 0.036 µM.
`CCC(=O)N(CCS(=O)(=O)N(CCCCC(F)(F)F)c1sc2ccccc2c1C)CC(C)C` [Cpd 90, N-(3-Methylbenzo[b]thiophen-2-yl)-N-(5,5,5-trifluoro-n-pent-1-yl)-2-(N-propionoyl-isobutylamino)ethylsulfonamide]: in experiment [2] (setting [3]), the inhibition at 0.2 µM worked out at 92%. In addition, in experiment [2] (setting [4]), the IC50 came to 0.044 µM.
Regarding `CCCN(CCS(=O)(=O)N(CCCCC(F)(F)F)c1sc2ccccc2c1C)CC(C)C` [Cpd 91, N-(3-Methylbenzo[b]thiophen-2-yl)-N-(5,5,5-tritluoro-n-pent-1-yl)-2-(n-propyl-isobutylamino)ethylsulfonamide], in experiment [2] (setting [3]), the inhibition at 0.2 µM was 99%. The IC50 in experiment [2] (setting [4]) was 0.05 µM.
For `CC(=O)N(CCS(=O)(=O)N(CCC1CC1)c1sc2ccccc2c1C)CC(C)C` [Cpd 92, N-(3-Methylbenzo[b]thiophen-2-yl)-N-(2-cyclopropyl-ethyl)-2-(N-acetyl-isobutylamino)ethylsulfonamide], in that order: 101% and 0.035 µM.
For the compound `CCC(=O)N(CCS(=O)(=O)N(CCC1CC1)c1sc2ccccc2c1C)CC(C)C` [Cpd 93, N-(3-Methylbenzo[b]thiophen-2-yl)-N-(2-cyclopropyl-ethyl)-2-(N-propionoyl-isobutylamino)ethylsulfonamide], the inhibition at 0.2 µM in experiment [2] (setting [3]) was found to be 100%. Also, the IC50 in experiment [2] (setting [4]) turned out to be 0.043 µM.
Consider `CCN(CCS(=O)(=O)N(CCC1CC1)c1sc2ccccc2c1C)CC(C)C` [Cpd 94, N-(3-Methylbenzo[b]thiophen-2-yl)-N-(2-cyclopropyl-ethyl)-2-(ethyl-isobutylamino)ethylsulfonamide], for which the inhibition at 0.2 µM in experiment [2] (setting [3]) is 103%. Further, in experiment [2] (setting [4]), the IC50 worked out at 0.027 µM.
In the case of `CCCN(CCS(=O)(=O)N(CCC1CC1)c1sc2ccccc2c1C)CC(C)C` [Cpd 95, N-(3-Methylbenzo[b]thiophen-2-yl)-N-(2-cyclopropyl-ethyl)-2-(n-propyl-isobutylamino)ethylsulfonamide], the inhibition at 0.2 µM in experiment [2] (setting [3]) worked out at 103%. The IC50 in experiment [2] (setting [4]) came out at 0.023 µM.
For `CC(C)CN(CCS(=O)(=O)N(Cc1ccc(OC(F)(F)F)cc1)c1ccc2ccccc2c1)CC(C)C` [Cpd 96, N-(Naphth-2-yl)-N-(4-trifluoromethoxy-benzyl)-2-(diisobutylamino)-ethylsulfonamide], in that order: 72% and 0.153 µM.

The values above are taken from US8148422B2, “Sulfonamides as TRPM8 modulators” (Janssen Pharmaceutica, NV, priority 2008, dated 2012).
